Measurements as given in patent US8288370B2, “Substituted azetidine compounds of formula (I) useful in the treatment of functional gastrointestinal disorders, IBS, and functional dyspepsia” (Albireo AB, priority 2005, dated 2012).
pIC50: −log10 of the molar value. Where a name gives a salt, the structure may show the parent alone.

Assays:
[1] = target: T1, human NK3 receptor (Homo sapiens, UniProt P29371); experiment: FLIPR assay, inhibition of human NK3 receptor activation (intracellular Ca2+ increase); format: cell-based; conditions: CHO cells with human NK3 receptor, agonist Pro-7-NKB; pKB converted from IC50
T1 construct: expressed in transfected cells; hNK3R in pcDNA 3.1/Hygro (+)/IRES/CD8
T1 sequence (P29371 1-465): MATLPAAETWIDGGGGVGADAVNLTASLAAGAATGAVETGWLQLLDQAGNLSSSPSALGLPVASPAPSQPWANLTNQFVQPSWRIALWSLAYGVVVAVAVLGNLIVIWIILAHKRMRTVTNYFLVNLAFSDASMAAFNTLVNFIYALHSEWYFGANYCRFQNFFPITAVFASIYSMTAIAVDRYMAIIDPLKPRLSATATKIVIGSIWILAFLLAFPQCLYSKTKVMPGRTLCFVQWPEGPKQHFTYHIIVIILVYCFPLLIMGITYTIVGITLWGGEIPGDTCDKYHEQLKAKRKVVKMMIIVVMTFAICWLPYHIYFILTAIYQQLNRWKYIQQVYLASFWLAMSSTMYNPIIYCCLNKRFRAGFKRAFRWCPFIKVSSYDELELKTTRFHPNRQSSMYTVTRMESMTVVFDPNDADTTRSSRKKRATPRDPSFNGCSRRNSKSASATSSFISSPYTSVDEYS
Method: (§1) Chinese Hamster Ovary (CHO) K1 cells (obtained from ATCC) were stably transfected with the human NK2 receptor (hNK2R cDNA in pRc/CMV, Invitrogen) or the human NK3 receptor (hNK3R in pcDNA 3.1/Hygro (+)/IRES/CD8, Invitrogen vector modified at AstraZeneca EST-Bio UK, Alderley Park). The cells were transfected with the cationic lipid reagent LIPOFECTAMINE™ (Invitrogen) and selection was performed with Geneticin (G418, Invitrogen) at 1 mg/ml for the hNK2R transfected cells and with Hygromycin (Invitrogen) at 500 μg/ml for the hNK3R transfected cells. Single cell clones were collected by aid of Fluorescence Activated Cell Sorter (FACS), tested for functionality in a FLIPR assay (see below), expanded in culture and cryopreserved for future use. CHO cells stably transfected with human NK1 receptors originates from AstraZeneca R&D, Wilmington USA. Human NK1 receptor cDNA (obtained from RNA-PCR from lung tissue) was subcloned into pRcCMV (Invitrogen). Transfection was performed by Calcium Phosphate and selection with 1 mg/ml G418. […]
(§2) The activity of a compound of the invention to inhibit NK1/NK2/NK3 receptor activation measured as NK1/NK2/NK3 receptor mediated increase in intracellular Ca^2+ was assessed by the following procedure: […]

[2] = target: T2, human NK2 receptor (Homo sapiens, UniProt P21452); experiment: FLIPR assay, inhibition of human NK2 receptor activation (intracellular Ca2+ increase); format: cell-based; conditions: CHO cells with human NK2 receptor, agonist NKA; pKB converted from IC50
T2 construct: expressed in transfected cells; hNK2R cDNA in pRc/CMV
T2 sequence (P21452 1-398): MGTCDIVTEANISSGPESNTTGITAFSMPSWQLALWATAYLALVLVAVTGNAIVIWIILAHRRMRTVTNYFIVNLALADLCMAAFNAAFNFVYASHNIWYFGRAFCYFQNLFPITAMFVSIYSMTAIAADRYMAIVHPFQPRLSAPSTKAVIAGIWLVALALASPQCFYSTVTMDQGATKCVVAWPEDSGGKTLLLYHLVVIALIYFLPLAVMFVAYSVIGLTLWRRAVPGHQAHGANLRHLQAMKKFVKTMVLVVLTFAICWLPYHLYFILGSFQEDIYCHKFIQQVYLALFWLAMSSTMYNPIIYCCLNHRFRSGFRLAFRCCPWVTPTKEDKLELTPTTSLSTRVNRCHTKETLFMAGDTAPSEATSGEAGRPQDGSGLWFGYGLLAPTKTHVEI
Method: as §1, §2

[3] = target: CYP3A4 (Homo sapiens, UniProt P08684); experiment: CYP3A4 inhibition assay (Bapiro et al.); format: in vitro ADME
Chain of CYP3A4 (P08684 whole entry): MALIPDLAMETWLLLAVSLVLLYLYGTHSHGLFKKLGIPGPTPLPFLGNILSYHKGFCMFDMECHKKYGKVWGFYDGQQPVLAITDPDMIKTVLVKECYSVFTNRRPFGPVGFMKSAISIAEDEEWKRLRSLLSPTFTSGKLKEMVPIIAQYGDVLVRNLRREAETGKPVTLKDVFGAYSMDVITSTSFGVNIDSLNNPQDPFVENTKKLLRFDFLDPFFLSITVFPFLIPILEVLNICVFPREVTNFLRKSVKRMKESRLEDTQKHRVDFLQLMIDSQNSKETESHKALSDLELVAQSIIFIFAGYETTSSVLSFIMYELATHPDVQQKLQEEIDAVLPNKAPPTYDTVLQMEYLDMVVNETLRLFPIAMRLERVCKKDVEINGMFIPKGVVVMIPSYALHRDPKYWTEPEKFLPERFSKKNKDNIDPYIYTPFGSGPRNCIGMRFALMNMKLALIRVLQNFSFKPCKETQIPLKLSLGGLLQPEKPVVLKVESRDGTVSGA
Source text: It is well known that severe problems such as toxicity may occur if plasma levels of one medication are altered by the co-administration of another drug. […] CYP (cytochrome P450) 3A4 is the most important enzyme in the human liver as a majority of oxidised drugs have been biotransformed by this enzyme. Accordingly, it is undesirable to employ a medication having a significant degree of such liver enzyme inhibiting properties. […] Thus, there is a need for a novel NK receptor antagonist with improved pharmacokinetic properties. The present invention provides compounds with CYP3A4 enzyme inhibiting properties at a low level, as comparatively high IC50 values are obtained in a CYP3A4 inhibiting assay. Said method for determining CYP3A4 inhibition is described in Bapiro et al; Drug Metab. Dispos. 29, 30-35 (2001).
The IC50 values tested according to Bapiro et al; Drug Metab. Dispos. 29, 30-35 (2001) were generally greater than 15 μM.

[4] = target: hERG-encoded potassium channel (Homo sapiens, UniProt Q12809); experiment: Activity against hERG (planar-array-based voltage clamp, Kiss et al.); format: cell-based
Chain of hERG-encoded potassium channel (Q12809 whole entry): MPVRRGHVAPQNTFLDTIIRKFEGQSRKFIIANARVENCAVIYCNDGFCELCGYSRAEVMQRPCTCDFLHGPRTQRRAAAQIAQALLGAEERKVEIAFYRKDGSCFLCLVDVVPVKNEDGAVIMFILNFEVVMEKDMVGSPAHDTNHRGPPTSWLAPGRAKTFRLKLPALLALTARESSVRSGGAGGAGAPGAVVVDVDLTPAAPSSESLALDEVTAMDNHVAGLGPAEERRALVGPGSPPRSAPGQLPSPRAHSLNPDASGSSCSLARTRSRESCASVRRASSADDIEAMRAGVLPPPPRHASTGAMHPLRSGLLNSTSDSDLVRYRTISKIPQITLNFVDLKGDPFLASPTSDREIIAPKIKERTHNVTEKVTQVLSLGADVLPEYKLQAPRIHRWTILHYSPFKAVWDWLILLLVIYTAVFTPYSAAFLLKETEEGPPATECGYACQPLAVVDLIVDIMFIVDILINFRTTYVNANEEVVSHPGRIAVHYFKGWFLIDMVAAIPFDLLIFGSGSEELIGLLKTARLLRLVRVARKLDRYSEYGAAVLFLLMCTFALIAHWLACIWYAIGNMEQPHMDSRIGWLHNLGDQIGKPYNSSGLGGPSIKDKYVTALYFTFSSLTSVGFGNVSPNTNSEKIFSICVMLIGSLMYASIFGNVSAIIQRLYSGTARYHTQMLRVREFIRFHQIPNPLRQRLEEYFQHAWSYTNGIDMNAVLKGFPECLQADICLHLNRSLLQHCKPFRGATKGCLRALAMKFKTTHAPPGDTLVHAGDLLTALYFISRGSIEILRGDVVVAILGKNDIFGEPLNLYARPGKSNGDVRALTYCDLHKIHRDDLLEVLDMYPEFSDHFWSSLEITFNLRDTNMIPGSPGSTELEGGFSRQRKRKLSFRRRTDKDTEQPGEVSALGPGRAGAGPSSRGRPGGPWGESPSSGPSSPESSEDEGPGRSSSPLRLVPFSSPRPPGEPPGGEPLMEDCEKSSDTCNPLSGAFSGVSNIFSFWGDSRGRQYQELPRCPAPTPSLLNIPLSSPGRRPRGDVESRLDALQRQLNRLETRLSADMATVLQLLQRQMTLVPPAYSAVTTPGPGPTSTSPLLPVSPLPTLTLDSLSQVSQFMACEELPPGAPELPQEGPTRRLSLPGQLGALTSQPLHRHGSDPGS
Source text: The activity of compounds according to formula I against the hERG-encoded potassium channel can be determined according to Kiss L, et al. Assay Drug Dev Technol. 1 (2003), 127-35: “High throughput ion-channel pharmacology: planar-array-based voltage clamp”.

[5] = target: T3, human NK1 receptor (Homo sapiens, UniProt P25103); experiment: FLIPR assay, inhibition of human NK1 receptor activation (intracellular Ca2+ increase); format: cell-based; conditions: CHO cells with human NK1 receptor, agonist Substance P; pKB converted from IC50
T3 construct: expressed in transfected cells; cDNA in pRcCMV
T3 sequence (P25103 whole entry): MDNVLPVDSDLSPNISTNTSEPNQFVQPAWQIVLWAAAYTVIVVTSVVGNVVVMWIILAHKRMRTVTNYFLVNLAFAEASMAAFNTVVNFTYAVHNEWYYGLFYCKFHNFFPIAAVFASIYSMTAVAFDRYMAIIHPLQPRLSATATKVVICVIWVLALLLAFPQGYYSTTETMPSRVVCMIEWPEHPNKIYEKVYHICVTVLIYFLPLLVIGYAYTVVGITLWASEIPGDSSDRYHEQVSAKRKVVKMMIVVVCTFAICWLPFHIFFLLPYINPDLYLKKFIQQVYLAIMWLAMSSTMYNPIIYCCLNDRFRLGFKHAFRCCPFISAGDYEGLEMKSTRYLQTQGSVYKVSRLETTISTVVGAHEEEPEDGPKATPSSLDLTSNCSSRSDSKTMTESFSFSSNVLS
Method: as §1, §2

[6] = Metabolic stability in liver microsomes (intrinsic clearance); format: in vitro ADME; conditions: human, pH 7.4, HLM
Method: The rate of biotransformation can be measured as either metabolite(s) formation or the rate of disappearance of the parent compound. The experimental design involves incubation of low concentrations of substrate (usually 1.0 μM) with liver microsomes (usually 0.5 mg/ml) and taking out aliquotes at varying time points (usually 0, 5, 10, 15, 20, 30, 40 min.). The test compound is usually dissolved in DMSO. The DMSO concentration in the incubation mixture is usually 0.1% or less since more solvent can drastically reduce the activities of some CYP450s. Incubations are done in 100 mM potassium phosphate buffer, pH 7.4 and at 37° C. Acetonitrile or methanol is used to stop the reaction. The parent compound is analysed by HPLC-MS. From the calculated half-life, t1/2, the intrinsic clearance, Clint, is estimated by taking microsomal protein concentration and liver weight into account.

[7] = tested on: Human Neurokinin-2 (NK2) Receptor; conditions: literature statement; cited from earlier work

Kb [1]	Kb [2]	pIC50 [3]	Kb [5]	microsomal CLint at 1 μM [6]	Compound	pIC50 [4]	functional NK2 receptor antagonistic properties [7]
3.16 nM	15.8 nM	< 4.30	2 nM	14 µL/min/mg	CN(C[C@@H](CCN1CC(N2CCN3C(=O)CC[C@@H]3C2)C1)c1ccc(F)cc1)C(=O)c1cc(Br)cc(C(F)(F)F)c1 [Ex 1, 3-Bromo-N-((2S)-2-(4-fluorophenyl)-4-{3-[(8aR)-6-oxohexahydropyrrolo[1,2-a]pyrazin-2(1H)-yl]azetidin-1-yl}butyl)-N-methyl-5-(trifluoromethyl)benzamide dihydrochloride]	4.91	
					CN(CC(CCN1CC(N2CCOCC2)C1)c1ccc(Cl)c(Cl)c1)C(=O)c1ccccc1 (stereo not shown) [N-[2-(3,4-dichlorophenyl)-4-(3-morpholin-4-ylazetidin-1-yl)butyl]-N-methylbenzamide]		possess functional NK2 receptor antagonistic properties
